Results: patent US4906467A, “Novel, long-duration treatment for glaucoma” (priority 1988, dated 1990)
“Also recorded” adds a separate entry of the source.

Assays:
[1] = rabbit, in vivo
[2] = tested on: intraocular pressure; conditions: cited from earlier work; for effect on intraocular pressure: in vivo
[3] = tested on: aqueous humor formation; conditions: in vivo; cited from earlier work
[4] = tested on: ciliary body Na^+ -K^+ -ATPase; conditions: cited from earlier work
[5] = tested on: corneal epithelial Na^+ -K^+ -ATPase; conditions: corneal epithelium, in vitro; cited from earlier work
[6] = tested on: RABBIT INTRAOCULAR PRESSURE; assay: Effect of topical 12(R)-HETE on rabbit intraocular pressure (pneumotometer); assay type: in vivo; conditions: for intraocular pressure, difference from baseline (mean ± SEM): n = 6
Experimental: A solution of 12(R)-HETE was prepared by dissolving 50 μg 12(R)-HETE in 1 ml ethanol and diluting to give aliquots containing 0.5 or 1.0 μg 12(R)-HETE in each of several containers. These could be frozen at -78° C. with or without ethanol. Before use, aliquots were warmed, ethanol was removed (if necessary) and sterile phosphate buffered saline (PBS) was added to give a concentration of 0.01 mg 12(R)-HETE/ml PBS. Rabbits were treated by administering 10 to 50 μl of 12(R)-HETE in PBS topically to the each eye of a 1.5 kg rabbit. Control rabbits were treated with PBS alone. Intraocular pressure was measured on a conventional pneumotometer, using a sensor size appropriate for the eye to be measured.
The pressure in each eye of the rabbits was measured several times before beginning the experiment to establish a baseline. Pressure was measured again just after administration of the test compound, then every 30 minutes for 180 minutes, daily for six days, and again on days 9 and 11. […] Table 1 illustrates the mean and standard error of the pressure difference from baseline in six animals treated with 0.5 μg 12(R)-HETE (per eye) compared with three controls, only one of which was tested after the first day.

[7] = Ocular side effects after topical administration in vivo (corneal thickness, clarity, side effects)
[8] = tested on: intraocular pressure; assay: Intraocular pressure after topical 12(R)-HETE (general statement); assay type: in vivo; conditions: effective dose
[9] = tested on: Na^+ -K^+ -ATPases; conditions: cited from earlier work
[10] = in vivo; cited from earlier work

## CCCCC/C=C\C[C@@H](O)/C=C/C=C\C/C=C\CCC[14C](=O)O [1-(^14 C)-12(R)-HETE]
[1]
  eye tissues with highest levels of 12(R)-HETE and its metabolites: The highest levels were found in the cornea, ciliary bodies and trabecular meshwork

## CNCC(O)c1ccc(OC(=O)C(C)(C)C)c(OC(=O)C(C)(C)C)c1 (stereo not drawn) [dipivalyl epinephrine]
[2]
  effect on intraocular pressure: reducing the intraocular pressure
[3]
  effect on production of aqueous humor: decreases production of aqueous humor

## CCCCCC=CC[C@H](O)C=CC=CCC=CCCCC(=O)O [12(S)-HETE, reference compound]
[4]
  inhibition of Na+-K+-ATPase: only the R isomer exhibits a significant inhibition of enzyme activity
[5]
  inhibition of Na+-K+-ATPase: only the R isomer exhibits a significant inhibition of enzyme activity

## CCCCCC=CC[C@@H](O)C=CC=CCC=CCCCC(=O)O [12(R)-HETE, 12(R)-hydroxy-eicosa-5,8,10,14-tetraenoic acid]
[6]; 0 min., 0.5 μg per eye topical
  intraocular pressure, difference from baseline (mean ± SEM): -0.6 ± 0.9 mm Hg
[6]; 0.5 μg per eye, rabbits, Table 1
  onset and duration of intraocular pressure drop: short onset, sustained pressure drop
[6]; 0.5 μg per eye, vs PBS controls
  intraocular pressure in test animals compared with control animals: significantly below the pressure in control animals at all times after administration of the test drug
[6]; 30 min, 0.5 μg per eye topical
  intraocular pressure, difference from baseline (mean ± SEM): -3.5 ± 1.9 mm Hg
[6]; 60 min, 0.5 μg per eye topical
  intraocular pressure, difference from baseline (mean ± SEM): -5.6 ± 1.4 mm Hg
[6]; 90 min, 0.5 μg per eye topical
  intraocular pressure, difference from baseline (mean ± SEM): -5.6 ± 1.3 mm Hg
[6]; 120 min, 0.5 μg per eye topical
  intraocular pressure, difference from baseline (mean ± SEM): -7.2 ± 1.6 mm Hg
[6]; 150 min, 0.5 μg per eye topical
  intraocular pressure, difference from baseline (mean ± SEM): -4.7 ± 2.8 mm Hg
[6]; 180 min, 0.5 μg per eye topical
  intraocular pressure, difference from baseline (mean ± SEM): -4.1 ± 2.2 mm Hg
[6]; 2 days, 0.5 μg per eye topical
  intraocular pressure, difference from baseline (mean ± SEM): -3.2 ± 2.1 mm Hg
[6]; 3 days, 0.5 μg per eye topical
  intraocular pressure, difference from baseline (mean ± SEM): -4.2 ± 1.2 mm Hg
[6]; 4 days, 0.5 μg per eye topical
  intraocular pressure, difference from baseline (mean ± SEM): -4.2 ± 1.0 mm Hg
[6]; 5 days, 0.5 μg per eye topical
  intraocular pressure, difference from baseline (mean ± SEM): -5.2 ± 2.1 mm Hg
[6]; 6 days, 0.5 μg per eye topical
  intraocular pressure, difference from baseline (mean ± SEM): -6.0 + 1.2 mm Hg
[6]; 9 days, 0.5 μg per eye topical
  intraocular pressure, difference from baseline (mean ± SEM): -7.4 ± 1.7 mm Hg
[6]; 11 days, 0.5 μg per eye topical
  intraocular pressure, difference from baseline (mean ± SEM): -2.9 ± 1.5 mm Hg
[6]; Base (before dosing), 0.5 μg per eye, baseline 25.6 mm
  intraocular pressure, difference from baseline (mean ± SEM): 0.0 ± 1.4 mm Hg
[7]; doses up to 1 μg per eye
  untoward side effects: no untoward side effects have been observed
[7]; topical, in vivo
  corneal clarity: no loss of clarity
  corneal thickness: no increase in corneal thickness
  other observable side effects: no other observable side effects
[8]
  duration of intraocular pressure decrease: a decrease in intraocular pressure for a period of several days; also recorded: remains depressed for several days
  onset of intraocular pressure drop: drops within a few minutes
[4]
  inhibition of Na+-K+-ATPase: only the R isomer exhibits a significant inhibition of enzyme activity; also recorded: inhibit Na^+ -K^+ -ATPase isolated from the ciliary body
[5]
  inhibition of Na+-K+-ATPase: only the R isomer exhibits a significant inhibition of enzyme activity; also recorded: inhibit Na^+ -K^+ -ATPase isolated from the ciliary body and the corneal epithelium; also recorded: inhibit Na^+ -K^+ -ATPase in the corneal epithelium in vitro
[9]
  inhibition of Na+-K+-ATPases: inhibitor of Na^+ -K^+ -ATPases

## CC(=O)Nc1nnc(S(N)(=O)=O)s1 [acetazolamide]
[2]
  effect on intraocular pressure: lowering intraocular pressure in patients with glaucoma
[3]
  effect on production of aqueous humor: reduces the rate of aqueous humor formation

## CC[C@@H]1C(=O)OC[C@@H]1Cc1cncn1C [Pilocarpine]
[2]
  effect on intraocular pressure: a transitory rise in intraocular pressure, followed by a more persistent fall
[10]
  effect on pupil size / ciliary body tone / vision: pupillary constriction, spasm of accomodation

## CNC[C@H](O)c1ccc(O)c(O)c1 [Epinephrine]
[2]
  effect on intraocular pressure: reducing the intraocular pressure
[3]
  effect on production of aqueous humor: decreases production of aqueous humor

## CC(=O)OC1CN2CCC1CC2 (stereo not drawn) [Aceclidine]
[2]; glaucoma
  effectiveness in reducing intraocular pressure compared with pilocarpine: approximately as effective as pilocarpine in reducing intraocular pressure

## C[C@@H]1O[C@@H](O[C@H]2C[C@@H](O)[C@]3(CO)[C@H]4[C@H](O)C[C@]5(C)[C@@H](C6=CC(=O)OC6)CC[C@]5(O)[C@@H]4CC[C@]3(O)C2)[C@H](O)[C@H](O)[C@H]1O [ouabain]
[9]
  inhibition of Na+-K+-ATPases: inhibit Na^+ -K^+ -ATPases
[2]
  effect on intraocular pressure: decrease intraocular pressure
[10]
  side effects: severe side effects including keratitis and inflammation of the cornea

## CC(C)(C)NC[C@H](O)COc1nsnc1N1CCOCC1 [Timolol]
[2]; glaucoma
  duration of beneficial effect: about 7 hours
[2]
  effect on intraocular pressure: effective in reducing intraocular pressure
[3]
  effect on production of aqueous humor: appears to act by reducing the production of aqueous humor
[10]
  side effects: The side effects are minimal, although systemic absorption of the drug can occur, leading to slowing of the heart
